Like-named read-outs stand apart in the source and are kept apart here.
Columns and labels:
[1] = DANCE-Pilot study and DANCE trial: adventitial dexamethasone after femoropopliteal revascularization; assay type: in vivo, human; conditions: for transient hyperglycemia event: controlled with insulin; for Rate of CD-TLR: 12 months
Excerpt: Provided herein are examples of in vivo human clinical trials using the Bullfrog Micro-Infusion Device for local delivery of dexamethasone. The Bullfrog Micro-Infusion Device was successfully used in the DANCE (Dexamethasone to the Adventitia to Enhance Clinical Efficacy After Femoropopliteal Revascularization)-Pilot study and the DANCE trial in superficial femoral and popliteal arteries.
In the DANCE-Pilot study, 20 subjects were enrolled and treated with the Bullfrog device delivery of dexamethasone sodium phosphate. In the DANCE trial, 283 limbs were enrolled and treated with the Bullfrog device delivery of dexamethasone sodium phosphate. In 3.3% of the subjects enrolled in DANCE, there was no detected contrast medium distribution in the adventitia and perivascular tissues. In one subject in DANCE-Pilot and one subject in DANCE, there was a transient hyperglycemia event reported, which was treated and controlled with insulin therapy. There were no other unexpected adverse device events or suspected unexpected severe adverse reactions reported in the study.
The single-arm DANCE (Dexamethasone to the Adventitia to Enhance Clinical Efficacy After Femoropopliteal Revascularization) trial enrolled 262 subjects (283 limbs) with symptomatic peripheral artery disease (Rutherford category 2 to 4) receiving percutaneous transluminal angioplasty (PTA) (n=124) or atherectomy (ATX) (n=159) in femoropopliteal lesions <15 cm in length. A mixture of dexamethasone/contrast medium (80%/20%) was delivered to the adventitia and perivascular tissues surrounding target lesions in all subjects. Thirty-day assessments included major adverse limb events (MALE) and post-operative death. Twelve-month assessments included primary patency, freedom from clinically driven target lesion revascularization (CD-TLR), Rutherford scoring, and walking impairment questionnaire. […] In the secondary analysis, both the ATX and PTA DANCE groups were noninferior to the 72.3% contemporary performance goal, whether examining the PP (P<0.001 and P<0.004, respectively) or ITT (P<0.002 and P<0.005, respectively) population.

[2] = 10 mg equivalent dexamethasone phosphate in 3 ml, after angioplasty, 14 days
Description: A first study was designed to compare a high dose of dexamethasone (10 mg equivalent dose of dexamethasone phosphate) delivered in 3 ml volume to the perivascular tissue of porcine AV grafts (6 mm ringed PTFE) implanted between femoral artery and femoral vein pairs, bilaterally. Fourteen days after graft implantation, percutaneous transluminal angioplasty (PTA) was performed (7 mm balloon, 16 atmosphere inflation pressure) at two sites per graft: across the graft-vein anastomosis (GVA) and in the proximal vein (PV). Perivascular infusion of either dexamethasone (6 grafts) or placebo (2 grafts) was administered following the PTA procedure. Infusions of 3m1 were always consistent between the 2 grafts in each animal. Animals were euthanized 14 days after the treatment procedure and the graft-vein anastomosis and proximal vein were analyzed by histopathology and histomorphometry to determine adverse effects from the high dose of dexamethasone. The study was not powered to identify differences in stenosis but rather was aimed at determining dexamethasone local toxicity.

[3] = in vivo
Description: (§1) A second study was designed to assess the local toxicity of dexamethasone administered via the Bullfrog Micro-Infusion Device in a swine model. The following objectives were met in the study: In each of four subjects, confirmation of the safety of up to 16 mg dexamethasone delivered to the adventitia and perivascular tissue of each of 4 peripheral arteries and 6.4 mg dexamethasone delivered to the adventitia and perivascular tissue of each of 3 coronary arteries (at 3.2 mg/mL with 20% contrast), as compared to normal untreated tissue in two untreated subjects by clinical pathology and histopathology examination, at 28±3 days.

P-selectin = conditions: cited from earlier work
vWF = conditions: at 24 hours and 48 hours with dexamethasone treatment; cited from earlier work
[4] = Local toxicity of dexamethasone administered via Bullfrog device to peripheral and coronary arteries in swine; conditions: 28±3 days
Description: as §1

## C[C@@H]1C[C@H]2[C@@H]3CCC4=CC(=O)C=C[C@]4(C)[C@@]3(F)[C@@H](O)C[C@]2(C)[C@@]1(O)C(=O)COP(=O)(O)O [dexamethasone sodium phosphate]
[1]; DANCE-Pilot and DANCE
  other unexpected adverse device events or suspected unexpected severe adverse reactions: no other
[1]; DANCE-Pilot, 20 subjects
  transient hyperglycemia event: one subject
[1]; DANCE
  transient hyperglycemia event: one subject

## C[C@@H]1C[C@H]2[C@@H]3CCC4=CC(=O)C=C[C@]4(C)[C@@]3(F)[C@@H](O)C[C@]2(C)[C@@]1(O)C(=O)CO [dexamethasone, 9-fluoro-11(beta),17,21-trihydroxy-16(alpha)-methylpregna-1,4-diene-3,20-dione]
[1]; DANCE trial
  30-day MALE+post-operative death events: no 30-day MALE+post-operative death events
[1]; DANCE-ATX, ITT
  Rate of CD-TLR: 13.1%
[1]; DANCE-ATX, intent-to-treat
  primary patency rate at 12 months: 74.8%
[1]; DANCE-ATX, per-protocol
  primary patency rate at 12 months: 78.4%
  Rate of CD-TLR: 10.0%
[1]; DANCE-PTA, ITT
  Rate of CD-TLR: 13.7%
[1]; DANCE-PTA, intent-to-treat
  primary patency rate at 12 months: 74.3%
[1]; DANCE-PTA, per-protocol
  primary patency rate at 12 months: 75.5%
  Rate of CD-TLR: 11.0%
[1]; in vivo
  dose-limiting toxicity: No dose-limiting toxicity
[2]
  histopathology findings of femoral GVA vs perivascular placebo: no differences
[3]
  adverse or toxicologically meaningful changes in the treated vessels: no adverse or toxicologically meaningful changes
P-selectin; dexamethasone treatment
  P-selectin, time of elevation: 48 h
P-selectin; high dose 1 mg/kg bid×2 days, healthy males
  P-selectin levels: induced elevated P-selectin levels
P-selectin; low dose 0.04 mg/kg bid×2 days
  P-selectin levels: did not induce elevated P-selectin levels
vWF
  vWF: elevated
[4]
  gross necropsy, injury to the treatment areas: no evidence of injury
  local toxicity to the treated vessels (microscopic evaluation): no evidence of local toxicity
  local vascular irritation upon injection: no evidence of local vascular irritation
  peripheral organs abnormalities associated with test article: did not reveal any abnormalities
  thrombosis or stenosis of treated vessels: no evidence of thrombosis or stenosis
[4]; up to 83.2 mg per subject
  adverse postoperative events leading to early death: None of the animals

Source: patent US20220105108A1, “PERIVASCULAR ANTI-INFLAMMATORY THERAPY FOR VENOUS THROMBOSIS” (Mercator MedSystems, Inc., priority 2020, published 2022)
